Reference: patent US5707966A, “Antithrombotic agents” (Eli Lilly and Company, priority 1995, dated 1998)
Counter-ions that a name gives are not always drawn. Like-named read-outs stand apart in the source and are kept apart here.

Experiments:
Format in all cases: biochemical
Human plasma [1] = assay: Human plasma anticoagulation, thrombin time (TT); settings: concentration required to double the thrombin time, linear extrapolation
Method in brief: (§1)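 Citrated human plasma + cpd (broad conc. range); instrument clot timing. PT: saline/Thromboplastin-C. APTT: Actin 120 s, then CaCl2 0.02M. TT: saline/bovine thrombin 10 NIH units/mL. Value = conc. doubling clotting time, linear extrapolation.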

Human plasma [2] = assay: Human plasma anticoagulation, prothrombin time (PT); settings: concentration required to double the PT, linear extrapolation
Method in brief: as §1

Human Thrombin = Human Thrombin (Homo sapiens, UniProt P00734); assay: Inhibition of amidase activity of thrombin (Kass)
factor Xa = target: T1, factor Xa (Homo sapiens, UniProt P00742); assay: Kass with factor Xa, chromogenic substrate; settings: substrate N-Benzoyl-Ile-Glu-Gly-Arg-p-nitroanilide
T1 construct: Human factors X, Xa, IXa, XIa, and XIIa are purchased; purchased Enzyme Research Laboratories, South Bend, Ind

t-PA = target: T2, t-PA (Homo sapiens, UniProt P00750); assay: Kass with t-PA, chromogenic substrate; settings: substrate H-D-Ile-Pro-Arg-p-nitroanilide
T2 construct: purchased American Diagnostica, Greenwich, Conn
Description: By substantially following the procedures described above for human thrombin, and using other human blood coagulation system serine proteases and proteases of the fibrinolytic system with the appropriate chromogenic substrates, identified below, selectivity of the compounds of the present invention with respect to the coagulation factor serine proteases and with respect to the fibrinolytic system serine proteases are evaluated as well as their substantial lack of interference with serine proteases of the fibrinolytic system. Thrombin inhibitors preferably should spare fibrinolysis induced by urokinase, tissue plasminogen activator (t-PA) and streptokinase. This would be important to the therapeutic use of such agents as an adjunct to streptokinase, t-PA or urokinase thrombolytic therapy and to the use of such agents as an endogenous fibrinolysis-sparing (with respect to t-PA and urokinase) antithrombotic agent. In addition to the lack of interference with the amidase activity of the fibrinolytic proteases, such fibrinolytic system sparing can be studied by the use of human plasma clots and their lysis by the respective fibrinolytic plasminogen activators.
Human plasmin is purchased from Boehringer Mannheim, Indianapolis, Ind.; nt-PA is purchased as single chain activity reference from American Diagnostica, Greenwich, Conn. modified-t-PA6 (mt-PA6) is prepared at Eli Lilly and Company by procedure known in the art (See, Burck, et al., J. Biol. Chem., 265, […] (1990). Plasmin chromogenic substrate H-D-Val-Leu-Lys-p-nitroanilide and tissue plasminogen activator (t-PA) substrate H-D-Ile-Pro-Arg-p-nitroanilide are purchased from Kabi Vitrum, Stockholm, Sweden.

Bovine trypsin = target: T3, Bovine trypsin (Bos taurus, UniProt P00760); assay: Kass with trypsin, chromogenic substrate; settings: substrate N-Benzoyl-Phe-Val-Arg-p-nitroanilide
T3 construct: Bovine trypsin is purchased; purchased Worthington Biochemicals, Freehold, N.J
T3 sequence (P00760 24-246): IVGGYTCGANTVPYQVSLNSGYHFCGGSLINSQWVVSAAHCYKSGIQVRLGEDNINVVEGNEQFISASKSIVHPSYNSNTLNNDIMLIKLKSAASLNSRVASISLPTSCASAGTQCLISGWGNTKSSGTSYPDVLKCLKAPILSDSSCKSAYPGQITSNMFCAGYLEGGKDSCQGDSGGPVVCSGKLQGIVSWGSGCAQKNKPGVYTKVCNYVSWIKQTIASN

Human plasmin = target: T4, Human plasmin (Homo sapiens, UniProt P00747); assay: Kass with plasmin, chromogenic substrate; settings: substrate H-D-Val-Leu-Lys-p-nitroanilide
T4 construct: Human plasmin is purchased; purchased Boehringer Mannheim, Indianapolis, Ind

Human plasma [3] = assay: Human plasma anticoagulation, activated partial thromboplastin time (APTT); settings: concentration required to double the APTT, linear extrapolation
Method in brief: as §1

[4] = mean over a range of concentrations, […]

T4 sequence (P00747 97-810): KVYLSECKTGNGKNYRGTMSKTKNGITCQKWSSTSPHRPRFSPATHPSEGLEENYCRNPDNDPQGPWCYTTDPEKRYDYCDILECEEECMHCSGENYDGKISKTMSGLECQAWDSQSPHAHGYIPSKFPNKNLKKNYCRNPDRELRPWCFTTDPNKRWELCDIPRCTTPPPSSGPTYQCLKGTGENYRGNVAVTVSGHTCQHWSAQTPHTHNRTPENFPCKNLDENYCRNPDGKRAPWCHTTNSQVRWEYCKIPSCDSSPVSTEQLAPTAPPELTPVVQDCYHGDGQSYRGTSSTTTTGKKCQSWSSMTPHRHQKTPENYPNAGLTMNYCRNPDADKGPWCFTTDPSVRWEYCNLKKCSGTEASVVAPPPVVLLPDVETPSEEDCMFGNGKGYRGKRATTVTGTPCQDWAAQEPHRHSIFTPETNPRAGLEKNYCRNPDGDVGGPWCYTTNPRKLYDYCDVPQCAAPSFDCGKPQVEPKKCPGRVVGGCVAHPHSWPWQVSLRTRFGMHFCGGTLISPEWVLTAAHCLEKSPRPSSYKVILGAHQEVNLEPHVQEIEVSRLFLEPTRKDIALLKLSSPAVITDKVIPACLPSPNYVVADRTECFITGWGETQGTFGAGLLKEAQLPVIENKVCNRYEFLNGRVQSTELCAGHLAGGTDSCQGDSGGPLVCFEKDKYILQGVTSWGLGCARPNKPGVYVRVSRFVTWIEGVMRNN
T4 sequence (P00747 97-580 partner limits assumed): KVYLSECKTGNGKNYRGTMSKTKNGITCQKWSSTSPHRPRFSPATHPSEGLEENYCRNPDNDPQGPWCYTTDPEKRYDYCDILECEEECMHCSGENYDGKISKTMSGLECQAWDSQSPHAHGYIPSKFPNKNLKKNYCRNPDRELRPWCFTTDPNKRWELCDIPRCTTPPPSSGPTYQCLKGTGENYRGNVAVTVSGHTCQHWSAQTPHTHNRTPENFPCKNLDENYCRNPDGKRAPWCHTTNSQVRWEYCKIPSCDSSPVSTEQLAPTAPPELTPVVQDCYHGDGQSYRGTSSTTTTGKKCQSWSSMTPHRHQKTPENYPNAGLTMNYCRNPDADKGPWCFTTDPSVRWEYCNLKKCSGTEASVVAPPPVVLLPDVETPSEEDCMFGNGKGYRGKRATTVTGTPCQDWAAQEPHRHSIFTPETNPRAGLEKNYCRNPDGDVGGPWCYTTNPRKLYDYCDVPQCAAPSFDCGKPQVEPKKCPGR
T2 sequence (P00750 36-562): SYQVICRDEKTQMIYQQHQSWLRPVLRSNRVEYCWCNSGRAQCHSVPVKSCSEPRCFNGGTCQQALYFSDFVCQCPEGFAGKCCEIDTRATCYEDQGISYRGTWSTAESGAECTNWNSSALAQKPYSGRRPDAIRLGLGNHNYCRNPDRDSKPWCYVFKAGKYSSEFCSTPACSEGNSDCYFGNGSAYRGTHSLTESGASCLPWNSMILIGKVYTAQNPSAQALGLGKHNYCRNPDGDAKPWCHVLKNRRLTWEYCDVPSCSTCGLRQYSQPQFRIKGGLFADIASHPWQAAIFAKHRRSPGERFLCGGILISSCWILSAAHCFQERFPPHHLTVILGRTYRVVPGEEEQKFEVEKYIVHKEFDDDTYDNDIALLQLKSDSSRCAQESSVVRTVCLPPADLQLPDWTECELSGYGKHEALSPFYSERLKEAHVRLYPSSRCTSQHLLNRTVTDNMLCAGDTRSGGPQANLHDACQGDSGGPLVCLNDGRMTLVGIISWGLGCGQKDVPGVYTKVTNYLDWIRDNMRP
T1 sequence (P00742 235-488 limits assumed): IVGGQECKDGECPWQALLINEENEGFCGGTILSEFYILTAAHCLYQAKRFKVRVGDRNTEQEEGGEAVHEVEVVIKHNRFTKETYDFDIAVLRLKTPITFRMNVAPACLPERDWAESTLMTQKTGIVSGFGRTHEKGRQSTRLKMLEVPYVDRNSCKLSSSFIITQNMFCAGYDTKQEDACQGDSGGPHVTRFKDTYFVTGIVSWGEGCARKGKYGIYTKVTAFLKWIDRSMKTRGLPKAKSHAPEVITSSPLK
T1 sequence (P00742 41-179 partner limits assumed): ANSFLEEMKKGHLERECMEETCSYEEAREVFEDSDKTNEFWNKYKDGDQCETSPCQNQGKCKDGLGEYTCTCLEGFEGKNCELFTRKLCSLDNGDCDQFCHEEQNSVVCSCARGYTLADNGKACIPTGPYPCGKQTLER

SMILES | Human Plasma Anticoagulation 2× Clotting time TT (Human plasma [1]) | Human Plasma Anticoagulation 2× Clotting time PT (Human plasma [2]) | Kass Human Thrombin (Human Thrombin; [4]) | Kass Xa (factor Xa) | Kass t-PA (t-PA) | Kass Trypsin (Bovine trypsin) | Kass Plasmin (Human plasmin) | Human Plasma Anticoagulation 2× Clotting time APTT (Human plasma [3]) | Kass Human Thrombin (Human Thrombin)
N=C(N)c1cccc(CCCNC(=O)[C@@H]2CCCN2C(=O)[C@@H]2NCC[C@@H]3CCCC[C@@H]32)c1 [Example 33, 1-Piq-Pro-m-NHCH2 CH2 CH2 --C6 H4 C(=NH)NH2.HCl] | 18,900 ng/mL | 70,900 ng/mL | 0.04 × 10^6 (L/mole) | 0.04 × 10^6 (L/mole) | < 0.001 × 10^6 (L/mole) | 0.02 × 10^6 (L/mole) | < 0.001 × 10^6 (L/mole) | 59,300 ng/mL | 
CCS(=O)(=O)N[C@H](Cc1ccccc1)C(=O)N1CCC[C@H]1C(=O)NCCc1ccc(NC(=N)N)cc1 [Example 35, EtSO2 -D-Phe-Pro-p-NHCH2 CH2 C6 H4 CNH(NH)NH2.HCl] | 4,500 ng/mL | 78,400 ng/mL | 0.09 × 10^6 (L/mole) | < 0.001 × 10^6 (L/mole) | < 0.001 × 10^6 (L/mole) | 0.04 × 10^6 (L/mole) | < 0.001 × 10^6 (L/mole) | 50,400 ng/mL | 
CCS(=O)(=O)N[C@H](Cc1ccccc1)C(=O)N1CCC[C@H]1C(=O)NCc1cccc(NC(=N)N)c1 [Example 36, EtSO2 -D-Phe-Pro-m-NHCH2 C6 H4 NHC(NH)NH2.HCl] | 7,700 ng/mL | > 91,000 ng/mL | 0.06 × 10^6 (L/mole) | < 0.001 × 10^6 (L/mole) | < 0.001 × 10^6 (L/mole) | 0.01 × 10^6 (L/mole) | < 0.001 × 10^6 (L/mole) | > 91,000 ng/mL | 
N=C(N)c1ccc(CNC(=O)[C@@H]2CCCN2C(=O)[C@@H](CC2CCCCC2)NCC(=O)O)cc1 [Example 48, HOOCCH2 -D-Cha-Pro-p-NHCH2 C6 H4 C(NH)NH2.HCl] | 2 ng/mL | 59 ng/mL | 4,100 × 10^6 (L/mole) | 5.5 × 10^6 (L/mole) | 0.05 × 10^6 (L/mole) | 250 × 10^6 (L/mole) | 0.43 × 10^6 (L/mole) | 33 ng/mL | 
O=C(O)CN[C@H](CC1CCCCC1)C(=O)N1CCC[C@H]1C(=O)NCC1CCNCC1 [Example 53, HO2 CCH2 -D-Cha-Pro-4-NHCH2 -piperidine.HCl] | 1,400 ng/mL | 34,500 ng/mL | 0.36 × 10^6 (L/mole) | < 0.001 × 10^6 (L/mole) | < 0.001 × 10^6 (L/mole) | 0.1 × 10^6 (L/mole) | < 0.001 × 10^6 (L/mole) | 33,800 ng/mL | 
O=C(O)CN[C@H](CC1CCCCC1)C(=O)N1CCC[C@H]1C(=O)NCCC1CCNCC1 [Example 54, HO2 CCH2 -D-Cha-Pro-4-NHCH2 CH2 -piperidine.HCl] | 140 ng/mL | 2,200 ng/mL | 2.8 × 10^6 (L/mole) | < 0.001 × 10^6 (L/mole) | < 0.001 × 10^6 (L/mole) | 0.52 × 10^6 (L/mole) | 0.01 × 10^6 (L/mole) | 3,300 ng/mL | 
O=C(O)CN[C@H](CC1CCCCC1)C(=O)N1CCC[C@H]1C(=O)NCCCC1CCNCC1 [Example 55, HO2 CCH2 -D-Cha-Pro-4-NHCH2 CH2 CH2 -piperidine.HCl] | 55,800 ng/mL | > 91,000 ng/mL | 0.01 × 10^6 (L/mole) | < 0.001 × 10^6 (L/mole) | < 0.001 × 10^6 (L/mole) | 0.01 × 10^6 (L/mole) | < 0.001 × 10^6 (L/mole) | > 91,000 ng/mL | 
N=C(N)N1CCC(CNC(=O)[C@@H]2CCCN2C(=O)[C@@H](CC2CCCCC2)NCC(=O)O)CC1 [Example 56, HO2 CCH2 -D-Cha-Pro-4-NHCH2 -1-amidinopiperidine.HCl] | 5 ng/mL | 200 ng/mL | 490 × 10^6 (L/mole) | 0.20 × 10^6 (L/mole) | < 0.001 × 10^6 (L/mole) | 3.6 × 10^6 (L/mole) | 0.01 × 10^6 (L/mole) | 160 ng/mL | 
N=C(N)N1CCC(CCNC(=O)[C@@H]2CCCN2C(=O)[C@@H](CC2CCCCC2)NCC(=O)O)CC1 [Example 57, HO2 CCH2 -D-Cha-Pro-4-NHCH2 CH2 -1-amidinopiperidine.HCl] | 14 ng/mL | 340 ng/mL |  | 0.01 × 10^6 (L/mole) | < 0.001 × 10^6 (L/mole) | 0.24 × 10^6 (L/mole) | 0.01 × 10^6 (L/mole) | 360 ng/mL | 39
O=C(O)CN[C@H](CC1CCCCC1)C(=O)N1CCC[C@H]1C(=O)NCC1=CCNCC1 [Example 58, HO2 CCH2 -D-Cha-Pro-4-NHCH2 -3,4-dehydro-piperidine.HCl] | 710 ng/mL | 11,400 ng/mL | 0.60 × 10^6 (L/mole) | < 0.001 × 10^6 (L/mole) | < 0.001 × 10^6 (L/mole) | 0.40 × 10^6 (L/mole) | < 0.001 × 10^6 (L/mole) | 14,300 ng/mL | 
O=C(O)CN[C@H](CC1CCCCC1)C(=O)N1CCC[C@H]1C(=O)NCCC1=CCNCC1 [Example 59, HO2 CCH2 -D-Cha-Pro-4-NHCH2 CH2 -3,4-dehydro-piperidine.HCl] | 420 ng/mL | 7,000 ng/mL | 1.10 × 10^6 (L/mole) | < 0.001 × 10^6 (L/mole) | < 0.001 × 10^6 (L/mole) | 0.21 × 10^6 (L/mole) | < 0.001 × 10^6 (L/mole) | 5,500 ng/mL | 
O=C(O)CN[C@H](CC1CCCCC1)C(=O)N1CCC[C@H]1C(=O)NCCCC1=CCNCC1 [Example 60, HO2 CCH2 -D-Cha-Pro-4-NHCH2 CH2 CH2 -3,4-dehydro-piperidine.HCl] | 3,200 ng/mL | 77,700 ng/mL | 0.24 × 10^6 (L/mole) | < 0.001 × 10^6 (L/mole) | < 0.001 × 10^6 (L/mole) | 0.03 × 10^6 (L/mole) | < 0.001 × 10^6 (L/mole) | 22,200 ng/mL | 
N=C(N)NCCCCNC(=O)[C@@H]1CCCN1C(=O)[C@@H]1NCC[C@H]2CCCC[C@H]21 [Example 61, N-[4-[(aminoiminomethyl)amino]butyl]-1-[[(4aR,8aR)-decahydro-1(R)-isoquinolinyl]carbonyl]-1-prolinamide trihydrochloride] | 45 ng/mL | 756 ng/mL | 63 × 10^6 (L/mole) | 0.03 × 10^6 (L/mole) | 0.008 × 10^6 (L/mole) | 1.0 × 10^6 (L/mole) | 0.004 × 10^6 (L/mole) | 679 ng/mL | 
